The results in this text go back to paper PMC2615555 (Virology, 2008).

pIC50: −log10 of the molar value. Peptide text beside a SMILES is read from it. Where only a bound is given, the exact number is not on record here.

Some targets named below: H2-D^d (Mus musculus, UniProt P01900); H2-L^d (Mus musculus, UniProt P01897); H2-K^d (Mus musculus, UniProt P01902).
Common to all, as to test: biochemical
Assay type in all cases: binding, BALB/c mouse

For a further assay, the target named is T1, I-E^d (Mus musculus, UniProt P01904+P01915).
T1 sequence (P01904 26-255): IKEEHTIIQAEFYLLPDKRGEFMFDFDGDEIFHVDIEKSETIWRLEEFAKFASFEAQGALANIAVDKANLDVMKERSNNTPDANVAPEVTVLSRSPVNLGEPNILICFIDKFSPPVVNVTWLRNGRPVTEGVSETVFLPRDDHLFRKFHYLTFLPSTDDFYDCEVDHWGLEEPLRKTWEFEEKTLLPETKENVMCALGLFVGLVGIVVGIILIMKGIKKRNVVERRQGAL
T1 sequence (P01915 27-264 limits assumed): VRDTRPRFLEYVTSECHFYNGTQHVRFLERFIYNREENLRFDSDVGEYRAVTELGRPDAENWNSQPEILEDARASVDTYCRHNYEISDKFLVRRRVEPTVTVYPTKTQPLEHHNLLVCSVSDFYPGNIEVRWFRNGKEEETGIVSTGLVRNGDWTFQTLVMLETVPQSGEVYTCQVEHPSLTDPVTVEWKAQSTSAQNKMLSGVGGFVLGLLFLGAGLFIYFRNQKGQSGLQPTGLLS

A further assay concerns the target T2, I-A^d (Mus musculus, UniProt P01921+P04228).
T2 sequence (P04228 24-256): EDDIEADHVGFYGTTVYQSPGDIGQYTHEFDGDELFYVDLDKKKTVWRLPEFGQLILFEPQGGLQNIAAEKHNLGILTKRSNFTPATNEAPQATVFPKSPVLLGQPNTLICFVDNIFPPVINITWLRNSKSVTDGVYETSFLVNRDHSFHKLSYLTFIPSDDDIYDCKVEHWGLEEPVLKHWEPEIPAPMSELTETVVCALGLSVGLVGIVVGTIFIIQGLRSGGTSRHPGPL
T2 sequence (P01921 28-265): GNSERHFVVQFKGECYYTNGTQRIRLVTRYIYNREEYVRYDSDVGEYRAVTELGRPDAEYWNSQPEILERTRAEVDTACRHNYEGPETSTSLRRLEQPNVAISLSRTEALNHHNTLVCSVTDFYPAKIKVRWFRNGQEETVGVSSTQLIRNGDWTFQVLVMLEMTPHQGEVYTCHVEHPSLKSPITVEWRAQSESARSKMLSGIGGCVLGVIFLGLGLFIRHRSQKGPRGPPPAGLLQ
The note with it: Binding Assay IC50, I-A^d (membrane 15mers).

Chain of H2-L^d (P01897 25-362): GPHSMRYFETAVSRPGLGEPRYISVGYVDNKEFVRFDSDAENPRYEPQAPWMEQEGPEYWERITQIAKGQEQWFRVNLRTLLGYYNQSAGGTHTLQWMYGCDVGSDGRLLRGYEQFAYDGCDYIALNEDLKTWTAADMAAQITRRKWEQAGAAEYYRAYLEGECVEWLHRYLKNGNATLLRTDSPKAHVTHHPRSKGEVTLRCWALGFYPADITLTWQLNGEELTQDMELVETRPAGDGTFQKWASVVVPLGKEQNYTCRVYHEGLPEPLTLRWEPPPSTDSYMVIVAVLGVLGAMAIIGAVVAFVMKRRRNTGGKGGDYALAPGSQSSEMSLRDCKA
Chain of H2-L^d (P61769 21-119 partner): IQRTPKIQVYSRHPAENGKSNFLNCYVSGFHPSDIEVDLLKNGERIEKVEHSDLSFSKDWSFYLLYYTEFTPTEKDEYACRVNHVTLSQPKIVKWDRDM
Chain of H2-D^d (P01900 25-365): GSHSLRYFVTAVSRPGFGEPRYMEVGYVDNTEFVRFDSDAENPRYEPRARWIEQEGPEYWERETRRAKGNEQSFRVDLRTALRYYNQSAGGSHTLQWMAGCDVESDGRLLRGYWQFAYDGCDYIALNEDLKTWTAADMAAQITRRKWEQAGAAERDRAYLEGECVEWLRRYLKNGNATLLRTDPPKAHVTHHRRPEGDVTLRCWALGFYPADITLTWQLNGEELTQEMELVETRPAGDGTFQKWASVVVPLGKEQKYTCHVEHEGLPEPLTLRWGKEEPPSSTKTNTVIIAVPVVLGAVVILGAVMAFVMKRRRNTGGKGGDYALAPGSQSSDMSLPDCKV
Chain of H2-D^d (P61769 21-119 partner): as the sequence (P61769 21-119 partner) above
Chain of H2-K^d (P01902 22-368): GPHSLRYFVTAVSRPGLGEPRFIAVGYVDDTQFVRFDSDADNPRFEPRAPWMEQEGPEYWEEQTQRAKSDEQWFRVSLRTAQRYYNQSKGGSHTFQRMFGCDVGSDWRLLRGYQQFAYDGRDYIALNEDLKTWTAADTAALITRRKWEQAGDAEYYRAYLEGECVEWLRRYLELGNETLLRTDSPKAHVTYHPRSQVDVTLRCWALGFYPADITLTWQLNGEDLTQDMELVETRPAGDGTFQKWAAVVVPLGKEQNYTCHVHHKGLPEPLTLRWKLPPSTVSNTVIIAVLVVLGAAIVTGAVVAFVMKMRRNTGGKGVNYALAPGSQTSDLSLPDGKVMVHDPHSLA
Chain of H2-K^d (P61769 21-119 partner): as the sequence (P61769 21-119 partner) above

Turning to `CC[C@H](C)[C@H](NC(=O)[C@H](CCCCN)NC(=O)[C@@H](NC(=O)[C@H](Cc1c[nH]cn1)NC(=O)[C@@H](NC(=O)[C@H](CC(C)C)NC(=O)[C@@H](NC(=O)[C@H](C)N)C(C)C)[C@@H](C)O)C(C)C)C(=O)N[C@@H](CC(N)=O)C(=O)O` [E63–71] (H-AVLTHVKIN-OH), the pIC50 is under 4.15 on H2-D^d, 4.68 at H2-L^d and 4.26 on H2-K^d.
For `CC(C)C[C@H](NC(=O)[C@@H](NC(=O)[C@H](C)NC(=O)[C@H](CC(N)=O)NC(=O)[C@H](Cc1ccc(O)cc1)NC(=O)[C@H](CS)NC(=O)[C@@H](NC(=O)[C@H](CCCCN)NC(=O)[C@@H](N)CCCNC(=N)N)C(C)C)C(C)C)C(=O)O` [E57–65], the negative logarithm of the IC50 (pIC50) against H2-D^d is under 4.15; at H2-L^d, 4.40; at H2-K^d, under 4.15.
`CC[C@H](C)[C@H](N)C(=O)N[C@H](C(=O)N[C@@H](C)C(=O)N[C@@H](CC(=O)O)C(=O)N[C@@H](CC(=O)O)C(=O)N[C@@H](CC(C)C)C(=O)N[C@H](C(=O)N[C@@H](C)C(=O)N[C@@H](C)C(=O)O)[C@@H](C)O)C(C)C` [E335–343] (H-IVADDLTAA-OH): the pIC50 at H2-D^d was under 4.15; on H2-L^d it was 4.42; against H2-K^d it was under 4.15.
As for `CSCC[C@H](NC(=O)[C@H](Cc1c[nH]c2ccccc12)NC(=O)[C@H](CCCCN)NC(=O)[C@H](CCC(=O)O)NC(=O)[C@H](CCC(N)=O)NC(=O)[C@H](CCCNC(=N)N)NC(=O)[C@@H](NC(=O)[C@H](CCCCN)NC(=O)[C@H](CC(C)C)NC(=O)CNC(=O)[C@H](Cc1c[nH]cn1)NC(=O)[C@@H](N)CC(N)=O)[C@@H](C)O)C(=O)N[C@H](C(=O)NCC(=O)N[C@@H](CCCNC(=N)N)C(=O)O)[C@@H](C)O` [M9–23], the negative logarithm of the IC50 (pIC50) is under 4.35 against I-E^d and 4.39 on I-A^d.
Regarding `CC[C@H](C)[C@H](N)C(=O)N1CCC[C@H]1C(=O)N[C@H](C(=O)N[C@H](C(=O)N[C@H](C(=O)N[C@@H](C)C(=O)N[C@@H](CC(=O)O)C(=O)N[C@@H](CC(=O)O)C(=O)N[C@@H](CC(C)C)C(=O)O)C(C)C)[C@@H](C)CC)C(C)C` [E332–340] (H-IPVIVADDL-OH), the negative logarithm of the IC50 (pIC50) is under 4.15 on H2-D^d, 7.25 against H2-L^d and 4.48 on H2-K^d.
For `CC[C@H](C)[C@H](NC(=O)[C@@H](NC(=O)[C@@H]1CCCN1)C(C)C)C(=O)N[C@H](C(=O)N[C@@H](C)C(=O)N[C@@H](CC(=O)O)C(=O)N[C@@H](CC(=O)O)C(=O)N[C@@H](CC(C)C)C(=O)N[C@H](C(=O)O)[C@@H](C)O)C(C)C` [E333–341] (H-PVIVADDLT-OH), the negative-log IC50 (pIC50) on H2-D^d is under 4.15; at H2-L^d, 5.43; against H2-K^d, under 4.15.
For `CC[C@H](C)[C@H](NC(=O)[C@@H](N)C(C)C)C(=O)N[C@H](C(=O)N[C@@H](C)C(=O)N[C@@H](CC(=O)O)C(=O)N[C@@H](CC(=O)O)C(=O)N[C@@H](CC(C)C)C(=O)N[C@H](C(=O)N[C@@H](C)C(=O)O)[C@@H](C)O)C(C)C` [E334–342] (H-VIVADDLTA-OH), the pIC50 at H2-D^d is under 4.15; at H2-L^d, 4.72; at H2-K^d, under 4.15.
As to `CC(C)C[C@H](NC(=O)[C@@H](NC(=O)[C@H](C)NC(=O)[C@H](CC(N)=O)NC(=O)[C@H](Cc1ccc(O)cc1)NC(=O)[C@H](CS)NC(=O)[C@@H](N)C(C)C)C(C)C)C(=O)N[C@H](C(=O)N[C@@H](Cc1c[nH]cn1)C(=O)O)[C@@H](C)O` [E59–67] (H-VCYNAVLTH-OH), the pIC50 was under 4.15 on H2-D^d, 4.26 at H2-L^d and 6.68 on H2-K^d.
For the compound `CC[C@H](C)[C@H](NC(=O)[C@@H](NC(=O)[C@@H]1CCCN1C(=O)[C@@H](NC(=O)[C@H](CCCNC(=N)N)NC(=O)[C@@H](N)CS)[C@@H](C)CC)C(C)C)C(=O)N[C@H](C(=O)N[C@@H](C)C(=O)N[C@@H](CC(=O)O)C(=O)O)C(C)C` [E330–338] (H-CRIPVIVAD-OH), the figures for the pIC50 against H2-D^d, against H2-L^d and against H2-K^d were under 4.15, 4.27 and 6.04, respectively.
Regarding `CC(C)C[C@H](NC(=O)[C@@H](NC(=O)[C@H](C)NC(=O)[C@H](CC(N)=O)NC(=O)[C@@H](N)Cc1ccc(O)cc1)C(C)C)C(=O)N[C@H](C(=O)N[C@@H](Cc1c[nH]cn1)C(=O)N[C@H](C(=O)N[C@@H](CCCCN)C(=O)O)C(C)C)[C@@H](C)O` [E61–69] (H-YNAVLTHVK-OH), the pIC50 is under 4.15 against H2-D^d, under 4.15 at H2-L^d and 7.03 against H2-K^d.
In the case of `CC(C)C[C@H](NC(=O)[C@H](C)NC(=O)[C@@H](NC(=O)[C@@H](NC(=O)[C@H](C)NC(=O)[C@H](Cc1ccccc1)NC(=O)[C@H](Cc1ccccc1)NC(=O)[C@@H]1CCCN1C(=O)[C@H](CC(N)=O)NC(=O)[C@H](CCCNC(=N)N)NC(=O)[C@@H](NC(=O)[C@H](Cc1ccccc1)NC(=O)[C@H](Cc1c[nH]c2ccccc12)NC(=O)[C@H](CCCNC(=N)N)NC(=O)[C@@H](N)CCC(=O)O)C(C)C)C(C)C)[C@@H](C)O)C(=O)O` [M33–47], the negative-log IC50 (pIC50) is 5.64 at I-E^d and 8.14 on I-A^d.
For `CC[C@H](C)[C@H](NC(=O)[C@H](C)N)C(=O)N[C@@H](CC(=O)O)C(=O)N[C@@H](CC(C)C)C(=O)N1CCC[C@H]1C(=O)N[C@H](C(=O)N[C@@H](Cc1c[nH]cn1)C(=O)N[C@@H](CCC(=O)O)C(=O)N[C@@H](CC(N)=O)C(=O)N[C@@H](Cc1c[nH]cn1)C(=O)NCC(=O)N[C@@H](CC(C)C)C(=O)N[C@@H](CCCCN)C(=O)N[C@H](C(=O)N[C@@H](CCCNC(=N)N)C(=O)O)[C@@H](C)O)[C@@H](C)O` [M1–15], the pIC50 is 4.44 against I-E^d and under 4.35 at I-A^d.
The like results for `CC[C@H](C)[C@H](NC(=O)[C@@H](NC(=O)[C@@H](N)C(C)C)C(C)C)C(=O)N[C@@H](C)C(=O)N[C@@H](CC(C)C)C(=O)N[C@@H](CC(C)C)C(=O)N[C@H](C(=O)N[C@@H](CC(C)C)C(=O)N[C@@H](C)C(=O)N[C@H](C(=O)NCC(=O)N1CCC[C@H]1C(=O)N[C@@H](C)C(=O)N[C@@H](Cc1ccc(O)cc1)C(=O)N[C@@H](CO)C(=O)O)C(C)C)C(C)C` [M61–75] were, in that order, under 4.35 and 6.42.
In the same order, the values of `CC[C@H](C)[C@H](NC(=O)[C@@H](NC(=O)[C@@H](NC(=O)[C@H](CCCNC(=N)N)NC(=O)[C@H](CCC(N)=O)NC(=O)[C@@H](NC(=O)[C@H](CCSC)NC(=O)[C@H](CC(N)=O)NC(=O)[C@H](CO)NC(=O)CNC(=O)[C@@H](N)C(C)C)[C@@H](C)O)C(C)C)C(C)C)C(=O)N[C@@H](C)C(=O)N[C@@H](CC(C)C)C(=O)N[C@@H](CC(C)C)C(=O)N[C@H](C(=O)O)C(C)C` [M53–67] are 4.49 and 7.52.
The like results for `CC[C@H](C)[C@H](N)C(=O)N[C@@H](C)C(=O)N[C@@H](Cc1ccc(O)cc1)C(=O)N[C@@H](CC(C)C)C(=O)N[C@H](C(=O)NCC(=O)N[C@@H](CO)C(=O)N[C@@H](CC(N)=O)C(=O)N[C@@H](CCSC)C(=O)N[C@H](C(=O)N[C@@H](CCC(N)=O)C(=O)N[C@@H](CCCNC(=N)N)C(=O)N[C@H](C(=O)N[C@H](C(=O)N[C@H](C(=O)O)[C@@H](C)CC)C(C)C)C(C)C)[C@@H](C)O)C(C)C` [M49–63] were, in that order, 4.53 and 6.42.
`CC[C@H](C)[C@H](NC(=O)[C@H](CCCCN)NC(=O)[C@@H](NC(=O)[C@H](Cc1c[nH]cn1)NC(=O)[C@@H](NC(=O)[C@H](CC(C)C)NC(=O)[C@@H](NC(=O)[C@H](C)NC(=O)[C@@H](N)CC(N)=O)C(C)C)[C@@H](C)O)C(C)C)C(=O)O` [E62–70] (H-NAVLTHVKI-OH): the results for the negative logarithm of the IC50 (pIC50) against H2-D^d, on H2-L^d and against H2-K^d were under 4.15, under 4.15 and 5.81, respectively.
In the case of `CC(C)C[C@H](NC(=O)[C@@H](NC(=O)[C@H](C)NC(=O)[C@H](CC(N)=O)NC(=O)[C@H](Cc1ccc(O)cc1)NC(=O)[C@@H](N)CS)C(C)C)C(=O)N[C@H](C(=O)N[C@@H](Cc1c[nH]cn1)C(=O)N[C@H](C(=O)O)C(C)C)[C@@H](C)O` [E60–68] (H-CYNAVLTHV-OH), the pIC50 was under 4.15 against H2-D^d, under 4.15 against H2-L^d and 9.00 against H2-K^d.
As to `CC[C@H](C)[C@H](NC(=O)[C@H](CCCCN)NC(=O)[C@H](CCC(N)=O)NC(=O)[C@@H](N)CC(C)C)C(=O)N[C@@H](CCC(=O)O)C(=O)N[C@@H](CCCNC(=N)N)C(=O)N[C@@H](Cc1c[nH]c2ccccc12)C(=O)N[C@@H](Cc1ccccc1)C(=O)N[C@H](C(=O)N[C@@H](CCCNC(=N)N)C(=O)N[C@@H](CC(N)=O)C(=O)N1CCC[C@H]1C(=O)N[C@@H](Cc1ccccc1)C(=O)N[C@@H](Cc1ccccc1)C(=O)N[C@@H](C)C(=O)O)C(C)C` [M29–43], the figures for the pIC50 against I-E^d and on I-A^d were 5.81 and 6.23, respectively.

Usually pIC50 stands for the IC50 on a negative log10 scale, so that one unit is a factor of ten.
